Columns and labels:
Assay type in all cases: in vivo
[1] = test system: redroot pigweed (Amaranthus retroflexus, AMARE); assay: Pre-emerge test, greenhouse herbicide activity screening; settings: rating scale 0-100, 14 days after application
How it was run: (§1)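 Sandy loam pots; pre-emerge: sown 1 d pre-spray, surface-watered after, then bottom-watered. Post-emerge: sown 8–21 d before, 2–3 leaf stage, + 0.25% v/v NIS, bottom-watered. Acetone, 187 l/ha track spray, 15–1000 g ai/ha. 0–100 injury score, day 14.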

[2] = test system: barnyardgrass (Echinochloa crus-galli, ECHCG); assay: as above; settings: rating scale 0-100, 14 days after application
How it was run: (§2)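 Plants grown in 10 cm pots of sandy loam mix received acetone-dissolved compounds through a moving flat-fan nozzle. Doses ranged from 15 to 1000 g ai/ha. Pre-emerge pots were seeded one day earlier, post-emerge pots 8–21 days earlier. Fourteen days on, each pot was graded 0–100 for damage.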

[3] = test system: common ragweed (Ambrosia artemisizfolia L., AMBEL); assay: as above; settings: rating scale 0-100, 14 days after application
How it was run: as §2

[4] = test system: green foxtail (Setaria viridis, SETVI); assay: as above; settings: rating scale 0-100, 14 days after application
How it was run: as §2

[5] = test system: ivyleaf morningglory (Ipomoea hederacea, IPOHE); assay: as above; settings: rating scale 0-100, 14 days after application
How it was run: as §2

[6] = test system: johnsongrass (Sorghum halepense, SORHA); assay: as above; settings: rating scale 0-100, 14 days after application
How it was run: as §2

[7] = test system: lambsquarters (Chenopodium album, CHEAL); assay: as above; settings: rating scale 0-100, 14 days after application
How it was run: as §2

[8] = test system: large crabgrass (Digitaria sanguinalis, DIGSA); assay: as above; settings: rating scale 0-100, 14 days after application
How it was run: as §2

[9] = test system: sicklepod (Cassia obtusifolia, CASOB); assay: as above; settings: rating scale 0-100, 14 days after application
How it was run: as §2

[10] = test system: velvetleaf (Abutilon theophrasti, ABUTH); assay: as above; settings: rating scale 0-100, 14 days after application
How it was run: as §2

[11] = test system: field corn (Zea mays L., var. Dekalb 535, CORN); assay: Pre-emerge test, crop safety; settings: rating scale 0-100, 14 days after application
How it was run: as §1

[12] = test system: upland rice (Oryza sp., var. Tebonnet, RICE); assay: Pre-emerge test, crop safety; settings: rating scale 0-100, 14 days after application
How it was run: as §1

[13] = test system: barnyardgrass (Echinochloa crus-galli, ECHCG); assay: Post-emerge test, greenhouse herbicide activity screening; settings: rating scale 0-100 (0 no damage, 100 complete death), 14 days after application
How it was run: (§3)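 Applied at 15–1000 g ai/ha from acetone in 187 l/ha spray volume. Post-emergence applications included 0.25% v/v non-ionic surfactant and reached plants sown 8–21 days before. Pre-emergence applications were incorporated by surface watering. Efficacy or crop damage was rated on a 0–100 scale after 14 days.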

[14] = test system: common ragweed (Ambrosia artemisizfolia L., AMBEL); assay: as above; settings: rating scale 0-100 (0 no damage, 100 complete death), 14 days after application
How it was run: as §3

[15] = test system: green foxtail (Setaria viridis, SETVI); assay: as above; settings: rating scale 0-100 (0 no damage, 100 complete death), 14 days after application
How it was run: as §3

[16] = test system: ivyleaf morningglory (Ipomoea hederacea, IPOHE); assay: as above; settings: rating scale 0-100 (0 no damage, 100 complete death), 14 days after application
How it was run: as §3

[17] = test system: johnsongrass (Sorghum halepense, SORHA); assay: as above; settings: rating scale 0-100 (0 no damage, 100 complete death), 14 days after application
How it was run: as §3

[18] = test system: lambsquarters (Chenopodium album, CHEAL); assay: as above; settings: rating scale 0-100 (0 no damage, 100 complete death), 14 days after application
How it was run: as §3

[19] = test system: large crabgrass (Digitaria sanguinalis, DIGSA); assay: as above; settings: rating scale 0-100 (0 no damage, 100 complete death), 14 days after application
How it was run: as §3

[20] = test system: redroot pigweed (Amaranthus retroflexus, AMARE); assay: as above; settings: rating scale 0-100 (0 no damage, 100 complete death), 14 days after application
How it was run: as §3

[21] = test system: sicklepod (Cassia obtusifolia, CASOB); assay: as above; settings: rating scale 0-100 (0 no damage, 100 complete death), 14 days after application
How it was run: as §3

[22] = test system: velvetleaf (Abutilon theophrasti, ABUTH); assay: as above; settings: rating scale 0-100 (0 no damage, 100 complete death), 14 days after application
How it was run: as §3

[23] = test system: field corn (Zea mays L., var. Dekalb 535, CORN); assay: Post-emerge test, crop safety; settings: rating scale 0-100 (0 no damage, 100 complete death), 14 days after application
How it was run: (§4)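 Each test used a mechanized track sprayer delivering 187 l/ha of acetone solution at 15–1000 g ai/ha. Post-emerge foliage at 2–3 leaves was treated with added 0.25% v/v non-ionic surfactant and bottom-watered only. Injury was assessed on day 14, where 100 means total kill.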

[24] = test system: upland rice (Oryza sp., var. Tebonnet, RICE); assay: Post-emerge test, crop safety; settings: rating scale 0-100 (0 no damage, 100 complete death), 14 days after application
How it was run: as §4

With COc1c(Cl)cc(F)c(-n2c(=O)cc(C(F)(F)F)n(C)c2=O)c1CC(C)(Cl)C(=O)OCC(C)C (stereo not drawn) [14-40] the “Pre-emerge herbicidal activity, phytotoxicity rating AMARE” value ([1]; 63 g ai/ha) was 100, the “Pre-emerge herbicidal activity, phytotoxicity rating AMARE” value ([1]; 250 g ai/ha) was 100 and the “Pre-emerge herbicidal activity, phytotoxicity rating ECHCG” value ([2]; 63 g ai/ha) was 10. For the same molecule, the “Pre-emerge herbicidal activity, phytotoxicity rating ECHCG” value ([2]; 250 g ai/ha) was 80, the “Pre-emerge herbicidal activity, phytotoxicity rating AMBEL” value ([3]; 63 g ai/ha) was 30 and the “Pre-emerge herbicidal activity, phytotoxicity rating AMBEL” value ([3]; 250 g ai/ha) was 90. For the same molecule, the “Pre-emerge herbicidal activity, phytotoxicity rating SETVI” value ([4]; 63 g ai/ha) was 50, the “Pre-emerge herbicidal activity, phytotoxicity rating SETVI” value ([4]; 250 g ai/ha) was 100 and the “Pre-emerge herbicidal activity, phytotoxicity rating IPOHE” value ([5]; 63 g ai/ha) was 0. For the same molecule, the “Pre-emerge herbicidal activity, phytotoxicity rating IPOHE” value ([5]; 250 g ai/ha) was 0, the “Pre-emerge herbicidal activity, phytotoxicity rating SORHA” value ([6]; 63 g ai/ha) was 0 and the “Pre-emerge herbicidal activity, phytotoxicity rating SORHA” value ([6]; 250 g ai/ha) was 40. For the same molecule, the “Pre-emerge herbicidal activity, phytotoxicity rating CHEAL” value ([7]; 63 g ai/ha) was 95, the “Pre-emerge herbicidal activity, phytotoxicity rating CHEAL” value ([7]; 250 g ai/ha) was 100 and the “Pre-emerge herbicidal activity, phytotoxicity rating DIGSA” value ([8]; 63 g ai/ha) was 60. The “Pre-emerge herbicidal activity, phytotoxicity rating DIGSA” value ([8]; 250 g ai/ha) was 100, the “Pre-emerge herbicidal activity, phytotoxicity rating CASOB” value ([9]; 63 g ai/ha) was 0 and the “Pre-emerge herbicidal activity, phytotoxicity rating CASOB” value ([9]; 250 g ai/ha) was 0. The “Pre-emerge herbicidal activity, phytotoxicity rating ABUTH” value ([10]; 63 g ai/ha) was 100, the “Pre-emerge herbicidal activity, phytotoxicity rating ABUTH” value ([10]; 250 g ai/ha) was 100 and the “Pre-emerge phytotoxicity rating, crop damage CORN” value ([11]; 63 g ai/ha) was 0. For the same molecule, the “Pre-emerge phytotoxicity rating, crop damage CORN” value ([11]; 250 g ai/ha) was 0, the “Pre-emerge phytotoxicity rating, crop damage RICE” value ([12]; 63 g ai/ha) was 20 and the “Pre-emerge phytotoxicity rating, crop damage RICE” value ([12]; 250 g ai/ha) was 60. For the same molecule, the “Post-emerge Herbicidal Activity, phytotoxicity rating ECHCG” value ([13]; Rate 63 g ai/ha) was 100, the “Post-emerge Herbicidal Activity, phytotoxicity rating ECHCG” value ([13]; Rate 250 g ai/ha) was 100 and the “Post-emerge Herbicidal Activity, phytotoxicity rating AMBEL” value ([14]; Rate 63 g ai/ha) was 90. The “Post-emerge Herbicidal Activity, phytotoxicity rating AMBEL” value ([14]; Rate 250 g ai/ha) was 100, the “Post-emerge Herbicidal Activity, phytotoxicity rating SETVI” value ([15]; Rate 63 g ai/ha) was 85 and the “Post-emerge Herbicidal Activity, phytotoxicity rating SETVI” value ([15]; Rate 250 g ai/ha) was 99. The “Post-emerge Herbicidal Activity, phytotoxicity rating IPOHE” value ([16]; Rate 63 g ai/ha) was 30, the “Post-emerge Herbicidal Activity, phytotoxicity rating IPOHE” value ([16]; Rate 250 g ai/ha) was 60 and the “Post-emerge Herbicidal Activity, phytotoxicity rating SORHA” value ([17]; Rate 63 g ai/ha) was 20. The “Post-emerge Herbicidal Activity, phytotoxicity rating SORHA” value ([17]; Rate 250 g ai/ha) was 20, the “Post-emerge Herbicidal Activity, phytotoxicity rating CHEAL” value ([18]; Rate 63 g ai/ha) was 100 and the “Post-emerge Herbicidal Activity, phytotoxicity rating CHEAL” value ([18]; Rate 250 g ai/ha) was 100. For the same molecule, the “Post-emerge Herbicidal Activity, phytotoxicity rating DIGSA” value ([19]; Rate 63 g ai/ha) was 20, the “Post-emerge Herbicidal Activity, phytotoxicity rating DIGSA” value ([19]; Rate 250 g ai/ha) was 40 and the “Post-emerge Herbicidal Activity, phytotoxicity rating AMARE” value ([20]; Rate 63 g ai/ha) was 100. For the same molecule, the “Post-emerge Herbicidal Activity, phytotoxicity rating AMARE” value ([20]; Rate 250 g ai/ha) was 100, the “Post-emerge Herbicidal Activity, phytotoxicity rating CASOB” value ([21]; Rate 63 g ai/ha) was 20 and the “Post-emerge Herbicidal Activity, phytotoxicity rating CASOB” value ([21]; Rate 250 g ai/ha) was 60. For the same molecule, the “Post-emerge Herbicidal Activity, phytotoxicity rating ABUTH” value ([22]; Rate 63 g ai/ha) was 90, the “Post-emerge Herbicidal Activity, phytotoxicity rating ABUTH” value ([22]; Rate 250 g ai/ha) was 100 and the “Post-emerge phytotoxicity rating CORN (crop damage)” value ([23]; Rate 63 g ai/ha) was 35. For the same molecule, the “Post-emerge phytotoxicity rating CORN (crop damage)” value ([23]; Rate 250 g ai/ha) was 70, the “Post-emerge phytotoxicity rating RICE (crop damage)” value ([24]; Rate 63 g ai/ha) was 15 and the “Post-emerge phytotoxicity rating RICE (crop damage)” value ([24]; Rate 250 g ai/ha) was 75.
